Results reported in patent publication US20160303089A1, “COMPOUND PERTAINING TO NEUROPOIESIS AND DRUG COMPOSITION” (KYOTO UNIVERSITY, priority 2013, published 2016).

How the values were obtained:
[1] = test system: phosphorylation of tau protein; assay: Tau phosphorylation in brain, acute cold water stress model (western blotting); assay type: in vivo; details: administered 30 minutes before cold water stress (10 minutes); brains collected 5 minutes later
Experimental: Further, the study was conducted to investigate whether the compounds 1 to 2 inhibited the DYRK activity in the animal individuals in vivo by using phosphorylation of tau protein due to acute cold water stress as a marker. The animals were exposed to cold water stress for 10 minutes, and their brains were collected 5 minutes later. Then, the phosphorylation of the tau protein in the brains was confirmed by western blotting. Consequently, the phosphorylation of the tau protein was enhanced by the acute cold water stress. When the compound 1 or the compound 2 was administered to the animal individuals 30 minutes before they underwent the cold water stress, the tau phosphorylation caused by the cold water stress was inhibited.

DYRK3 = biological target: T1, DYRK3 (Homo sapiens, UniProt O43781); assay: In vitro assay of the inhibition of protein phosphorylation activity; assay type: biochemical
T1 sequence (O43781 1-588): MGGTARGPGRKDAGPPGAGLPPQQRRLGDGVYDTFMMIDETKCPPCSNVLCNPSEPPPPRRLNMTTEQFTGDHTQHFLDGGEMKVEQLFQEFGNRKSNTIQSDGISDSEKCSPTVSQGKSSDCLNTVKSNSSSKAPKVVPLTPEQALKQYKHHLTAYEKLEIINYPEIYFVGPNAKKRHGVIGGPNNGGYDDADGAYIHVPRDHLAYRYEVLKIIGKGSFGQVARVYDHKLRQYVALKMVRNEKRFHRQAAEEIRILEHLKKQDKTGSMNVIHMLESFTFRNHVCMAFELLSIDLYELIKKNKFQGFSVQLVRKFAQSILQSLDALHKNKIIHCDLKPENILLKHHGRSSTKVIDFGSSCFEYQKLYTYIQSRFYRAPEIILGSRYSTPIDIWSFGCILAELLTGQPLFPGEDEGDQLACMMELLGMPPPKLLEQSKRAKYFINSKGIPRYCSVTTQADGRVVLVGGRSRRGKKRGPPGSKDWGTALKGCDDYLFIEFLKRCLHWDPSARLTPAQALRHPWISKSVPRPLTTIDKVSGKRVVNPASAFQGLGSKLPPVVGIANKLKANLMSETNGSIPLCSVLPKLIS

CLK1 = CLK1 (Homo sapiens, UniProt P49759); assay: as above; assay type: biochemical
DYRK1A [2] = biological target: T2, DYRK1A (Homo sapiens, UniProt Q13627); assay: as above; assay type: biochemical
DYRK2 [3] = biological target: T3, DYRK2 (Homo sapiens, UniProt Q92630); assay: as above; assay type: biochemical
T3 construct: expressed in transfected cells; host or cells: HEK293 Flp-In
T3 sequence (Q92630 1-601): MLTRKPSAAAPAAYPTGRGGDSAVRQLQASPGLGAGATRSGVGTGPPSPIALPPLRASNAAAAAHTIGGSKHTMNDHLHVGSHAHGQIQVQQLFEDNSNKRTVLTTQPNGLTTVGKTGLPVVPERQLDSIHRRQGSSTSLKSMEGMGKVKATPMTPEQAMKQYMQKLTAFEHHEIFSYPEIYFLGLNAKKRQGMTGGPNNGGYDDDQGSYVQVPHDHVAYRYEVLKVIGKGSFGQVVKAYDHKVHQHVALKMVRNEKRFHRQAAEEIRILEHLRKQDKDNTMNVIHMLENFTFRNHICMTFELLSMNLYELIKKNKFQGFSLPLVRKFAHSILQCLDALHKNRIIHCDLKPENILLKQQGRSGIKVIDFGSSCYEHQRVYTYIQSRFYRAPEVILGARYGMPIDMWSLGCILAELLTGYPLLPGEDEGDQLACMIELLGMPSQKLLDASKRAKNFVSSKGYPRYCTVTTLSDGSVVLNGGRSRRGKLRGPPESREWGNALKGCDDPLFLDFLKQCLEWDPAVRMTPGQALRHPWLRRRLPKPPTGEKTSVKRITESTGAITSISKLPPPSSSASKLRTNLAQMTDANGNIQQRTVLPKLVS

CLK2 = CLK2 (Homo sapiens, UniProt P49760); assay: as above; assay type: biochemical
DYRKIB = DYRKIB (Homo sapiens, UniProt Q9Y463); assay: as above; assay type: biochemical
CLK3 = CLK3 (Homo sapiens, UniProt P49761); assay: as above; assay type: biochemical
DYRK2 [4] = biological target: T3, DYRK2; assay: Cyclin D1 expression in HEK293 Flp-In cell line with inducible DYRK expression (western blotting); assay type: cell-based
Experimental: (§1) Using cell lines that can induce the expression of DYRKIA, DYRKIB, and DYRK2 by the addition of a drug, the expression level of cyclin D1 was examined when DYRK was overexpressed (see FIG. 8). Specifically, the experiments were performed in the following manner.
(§2) A HEK293 Flp-In cell system was used to prepare cell lines that can induce the expression of each of DYRKIA, DYRK1B, and DYRK2 of the DYRK family by the addition of a drug. The cells were treated with the drug for 16 hours to induce the expression of DYRK, and then cultured in the presence of the compound 2 (5 μM) for 4 hours. After the cells were collected, the expression level of cyclin D1 was analyzed by western blotting (see FIG. 8).

DYRKIA = biological target: T4, DYRKIA (Homo sapiens, UniProt Q13627); assay: as above; assay type: cell-based
T4 construct: expressed in transfected cells; host or cells: HEK293 Flp-In
Experimental: as §1, §2

DYRK1B = biological target: T5, DYRK1B (Homo sapiens, UniProt Q9Y463); assay: as above; assay type: cell-based
T5 construct: expressed in transfected cells; host or cells: HEK293 Flp-In
Experimental: as §1, §2

[5] = test system: neural stem cells in the dentate gyrus of the hippocampus; assay: Neurogenesis in dentate gyrus of hippocampus of mice (BrdU positive cells); assay type: in vivo, C57BL/6J mice; details: oral, 30 mg/kg and 100 mg/kg for 10 or 30 days; depended on the dosage; compared to solvent control
Experimental: The effect of the compound 2 on neurogenesis in animal individuals (rodents) was studied. The subgranular zone of the dentate gyrus of the hippocampus is a region where neurogenesis occurs. In this region, 5-bromo-2′-deoxyuridine (BrdU) was used as a cell proliferation marker to specifically detect proliferating cells and quantitatively compare the number of proliferating cells. Specifically, the experiments were performed in the following manner. The compound 2 was prepared with a carboxymethyl cellulose solvent and orally administered repeatedly to 9-week-old male C57BL/6J mice (each weighing 25 g) in a dosage of 30 mg/kg and 100 mg/kg for 10 or 30 days. On the last day of the administration, 150 mg/kg of BrdU were intraperitoneally injected into the mice, and the samples were collected 24 hours later by perfusion fixation. Then, coronal sections of 50 μm were prepared by a microtome. After the denaturation of DNA by 1.5 N hydrochloric acid, an anti-BrdU antibody was used to detect BrdU that had been incorporated into the proliferating neural stem cells.

DYRK1A [6] = biological target: T2, DYRK1A; assay: Tau phosphorylation in cell lines with induced expression of DYRK1A and tau protein (western blotting); assay type: cell-based; set-up: dose or concentration left out as unconfirmed; details: compound for 4 hours after induced expression of DYRK1A and tau
Experimental: Moreover, the study was conducted to investigate whether the compound 3 inhibited the DYRK activity in the cells in vivo by using phosphorylation of tau protein (substrate) as a marker. First, cell lines that can induce the expression of DYRK1A and a tau protein by a drug were established. The cell lines were subjected to the drug treatment to induce the expression of DYRKIA and the tau protein. Then, the cells were treated with the compound 3 […] for 4 hours. After the cells were collected, the phosphorylation of the tau protein was detected by western blotting. The results confirmed that the treatment of the cells with the compound 3 inhibited the tau phosphorylation.

T5 sequence (Q9Y463 whole entry, species assumed): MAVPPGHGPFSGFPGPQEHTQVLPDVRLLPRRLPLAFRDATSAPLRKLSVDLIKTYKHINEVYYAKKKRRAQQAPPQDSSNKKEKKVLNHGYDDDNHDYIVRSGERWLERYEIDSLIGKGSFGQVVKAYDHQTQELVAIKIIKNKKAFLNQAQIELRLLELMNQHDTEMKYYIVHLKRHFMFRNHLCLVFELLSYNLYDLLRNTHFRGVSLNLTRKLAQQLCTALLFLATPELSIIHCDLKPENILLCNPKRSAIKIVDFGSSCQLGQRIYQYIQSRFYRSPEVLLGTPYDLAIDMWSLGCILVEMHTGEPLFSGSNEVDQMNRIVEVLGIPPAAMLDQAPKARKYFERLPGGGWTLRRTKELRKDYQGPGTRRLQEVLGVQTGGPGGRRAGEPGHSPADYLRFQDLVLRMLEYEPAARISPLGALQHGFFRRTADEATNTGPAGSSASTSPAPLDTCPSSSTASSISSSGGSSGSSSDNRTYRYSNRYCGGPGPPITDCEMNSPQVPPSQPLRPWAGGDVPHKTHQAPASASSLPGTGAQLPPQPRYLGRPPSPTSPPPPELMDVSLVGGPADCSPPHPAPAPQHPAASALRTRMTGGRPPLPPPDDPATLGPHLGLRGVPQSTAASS
CLK2, sequence (P49760 whole entry, species assumed): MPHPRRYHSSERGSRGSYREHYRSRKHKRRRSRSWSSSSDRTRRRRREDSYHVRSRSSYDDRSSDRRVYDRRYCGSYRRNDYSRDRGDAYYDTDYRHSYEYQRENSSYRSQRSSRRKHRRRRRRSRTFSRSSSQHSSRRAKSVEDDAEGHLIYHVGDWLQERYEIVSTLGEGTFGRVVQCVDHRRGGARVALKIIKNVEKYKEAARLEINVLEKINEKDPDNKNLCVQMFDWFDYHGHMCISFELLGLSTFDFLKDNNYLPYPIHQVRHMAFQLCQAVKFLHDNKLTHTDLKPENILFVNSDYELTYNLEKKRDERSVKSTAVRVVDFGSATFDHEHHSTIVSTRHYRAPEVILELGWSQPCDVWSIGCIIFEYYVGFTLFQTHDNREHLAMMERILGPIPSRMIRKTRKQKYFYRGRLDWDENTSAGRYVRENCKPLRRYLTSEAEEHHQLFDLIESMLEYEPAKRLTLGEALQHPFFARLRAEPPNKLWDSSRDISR
CLK3, sequence (P49761 whole entry, species assumed): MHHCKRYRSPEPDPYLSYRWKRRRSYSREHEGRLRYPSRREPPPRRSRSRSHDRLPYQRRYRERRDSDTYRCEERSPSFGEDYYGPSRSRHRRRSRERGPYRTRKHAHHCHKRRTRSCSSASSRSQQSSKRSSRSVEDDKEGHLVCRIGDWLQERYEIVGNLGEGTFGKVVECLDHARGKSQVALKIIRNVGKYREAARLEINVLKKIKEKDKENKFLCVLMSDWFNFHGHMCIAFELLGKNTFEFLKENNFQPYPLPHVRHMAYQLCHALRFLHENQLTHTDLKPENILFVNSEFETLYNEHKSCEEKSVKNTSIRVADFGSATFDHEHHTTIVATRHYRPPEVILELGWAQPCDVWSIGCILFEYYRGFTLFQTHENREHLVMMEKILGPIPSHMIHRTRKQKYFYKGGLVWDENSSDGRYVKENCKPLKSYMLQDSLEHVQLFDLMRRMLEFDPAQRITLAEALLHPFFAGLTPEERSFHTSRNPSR
DYRKIB, sequence (Q9Y463 whole entry): as the sequence (Q9Y463 whole entry, species assumed) above
CLK1, sequence (P49759 whole entry): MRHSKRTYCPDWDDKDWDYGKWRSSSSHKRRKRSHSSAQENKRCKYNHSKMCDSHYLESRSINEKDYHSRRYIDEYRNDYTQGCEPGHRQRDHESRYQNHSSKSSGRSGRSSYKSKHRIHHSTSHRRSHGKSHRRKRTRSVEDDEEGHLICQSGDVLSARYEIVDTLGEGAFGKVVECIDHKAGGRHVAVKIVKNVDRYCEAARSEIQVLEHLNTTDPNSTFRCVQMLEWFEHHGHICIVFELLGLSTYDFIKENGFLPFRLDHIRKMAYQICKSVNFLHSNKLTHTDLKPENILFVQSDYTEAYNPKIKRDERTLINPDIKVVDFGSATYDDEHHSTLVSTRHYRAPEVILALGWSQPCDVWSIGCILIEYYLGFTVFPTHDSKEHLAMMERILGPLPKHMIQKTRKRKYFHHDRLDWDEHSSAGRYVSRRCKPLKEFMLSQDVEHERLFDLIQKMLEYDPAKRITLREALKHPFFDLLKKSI

| SMILES | tau phosphorylation caused by the cold water stress (brain) [1] | inhibition of the DYRK3 activity (DYRK3) | inhibition of the CLK1 activity (CLK1) | inhibition of the DYRK1A activity (DYRK1A [2]) | inhibition of the DYRK2 activity (DYRK2 [3]) | inhibition of the CLK2 activity (CLK2) | inhibition of the DYRKIB activity (DYRKIB) | inhibition of the CLK3 activity (CLK3) | expression level of cyclin D1 (DYRK2 [4]; DYRK2 cell line, compound 5 μM for 4 hours, lane 10 of FIG. 8) | reduction in cyclin D1 by inducing the expression of DYRK (DYRK2 [4]; DYRK2 expression induced 16 hours, then compound 5 μM for 4 hours, lane 12 of FIG. 8) | expression level of cyclin D1 (DYRKIA; DYRKIA cell line, compound 5 μM for 4 hours, lane 2 of FIG. 8) | reduction in cyclin D1 by inducing the expression of DYRK (DYRKIA; DYRKIA expression induced 16 hours, then compound 5 μM for 4 hours, lane 4 of FIG. 8) | expression level of cyclin D1 (DYRK1B; DYRK1B cell line, compound 5 μM for 4 hours, lane 6 of FIG. 8) | reduction in cyclin D1 by inducing the expression of DYRK (DYRK1B; DYRK1B expression induced 16 hours, then compound 5 μM for 4 hours, lane 8 of FIG. 8) | number of proliferating cells (BrdU positive) in the subgranular zone of the dentate gyrus of the hippocampus [5] | tau phosphorylation in cells (DYRK1A [6]) |
| --- | --- | --- | --- | --- | --- | --- | --- | --- | --- | --- | --- | --- | --- | --- | --- | --- |
| CCN1/C(=C/C(C)=O)Sc2ccc3c(c21)CCO3 [compound 1, (Z)-1-[1-ethyl-7,8-dihydrobenzofuro[4,5-d]thiazol-2(1H)-ylidene]propan-2-one] | inhibited | 100% | 99% | 98% | 100% | 98% | 99% | 80% | – | – | – | – | – | – | – | – |
| CCN1/C(=C/C(C)=O)Sc2ccc3occc3c21 [compound 2, (Z)-1-[1-ethyl-7,8-benzofuro[4,5-d]thiazol-2(1H)-ylidene]propan-2-one] | inhibited | – | – | – | – | – | – | – | increased | corrected | increased | corrected | increased | corrected | significantly large | – |
| COc1ccc2c([nH]c3c(C)nccc32)c1C#C[Si](C)(C)C [compound 3, 8-[2-(trimethylsilyl)ethynyl]harmine] | – | – | – | – | – | – | – | – | – | – | – | – | – | – | – | inhibited |
